Source: patent publication US20140377219A1, “HIV INHIBITORS” (New york Blood Center, Inc., priority 2011, published 2014)
Structures can show the parent of a compound that is named as a salt. Where two headings read alike, the source gives them in different places.

Tests used:
MT-2 cells = test: Cytotoxicity in MT-2 cells (XTT); type: cell-based
Description: Cytotoxicity of small molecules in MT-2 cells and PBMC was measured by the XTT ((sodium 3′-(1-(phenylamino)-carbonyl)-3,4-tetrazolium-bis(4-methoxy-6-nitro)benzene-sulfonic acid hydrate)) method. Briefly, for MT-2 cells, 100 μl of a small molecule at graded concentrations was added to an equal volume of cells (10^5 cells/ml) in 96-well plates followed by incubation at 37° C. for four days, which ran parallel with the neutralization assay in MT-2 (except medium was added instead of virus). In the case of PBMC, 5×10^5 cells/ml was used and the cytotoxicity was measured after seven days. […] The percentage cytotoxicity and the CC50 values were calculated as described above.

[1] = system: laboratory-adapted HIV-1 IIIB strain; conditions: read-out: MT-2 Cells IC50 (μM ± SD); multi-cycle assay, MT-2 cells, HIV-1 IIIB
Description: In brief, 1×10^4 MT-2 cells were infected with HIV-1 at 100 TCID50 (50% tissue culture infective dose) (0.01MOI) in 200 μl medium in the presence or absence of small molecules at graded concentrations and incubated overnight. The culture supernatants were then removed and replaced with fresh media. On the fourth day post-infection, 100 μl of culture supernatants were collected from each well, mixed with equal volume of 5% Triton X-100 and tested for p24 antigen by sandwich-ELISA. The percent inhibition of p24 production and IC50 values were calculated by the GraphPad Prism software (GraphPad Software Inc.).

TZM-bl cells = test: Cytotoxicity in TZM-bl cells (XTT); type: cell-based
Description: The cytotoxicity of small molecules in TZM-bl cells was measured by a colorimetric method using XTT (sodium 3′-(1-(phenylamino)-carbonyl)-3,4-tetrazolium-bis(4-methoxy-6-nitro)benzenesulfonic acid hydrate), a light yellowish tetrazolium dye. Briefly, 100 μl of a compound at graded concentrations was added to equal volume of cells (10^5/ml) in wells of 96-well plates followed by incubation at 37° C. for 3 days and addition of XTT (PolySciences, Inc., Warrington, Pa.).

[2] = TZM-bl cells, XTT, 3 days, read-out: TZM-bl cells CC50 (μM ± SD)
[3] = MT-2 cells, XTT, four days, read-out: MT-2 Cells CC50
[4] = at the dose given as CC50 bound

Row | SMILES | CC50 (MT-2 cells) [µM] | IC50 [1] [µM] | CC50 (TZM-bl cells) [µM] | % toxicity at that dose (number in parenthesis), MT-2 cells (MT-2 cells) [%] | CC50 (TZM-bl cells; [2]) [µM] | CC50 (MT-2 cells; [3]) [µM] | % toxicity at that dose (number in parenthesis), TZM-bl cells (TZM-bl cells; [4]) [%] | % toxicity at that dose (number in parenthesis), TZM-bl cells (TZM-bl cells) | % toxicity at that dose (number in parenthesis), MT-2 cells (MT-2 cells; [4]) [%]
1 | Cc1nc(C(NC(=O)C(=O)Nc2ccc(Cl)cc2)C2CCCNC2)sc1CO (centres unmarked) [Compound 7, N^1-(4-chlorophenyl)-N^2-((5-(hydroxymethyl)-4-methylthiazol-2-yl)(piperidin-3-yl)methyl)oxalamide.2HCl] | > 81 | 12 ± 1.1 | ~60.2 | – | – | – | – | – | –
2 | Cc1nc(C(NC(=O)C(=O)Nc2ccc(Cl)cc2)C2CCNCC2)sc1CO (centres unmarked) [Compound 8, N^1-(4-chlorophenyl)-N^2-((5-(hydroxymethyl)-4-methylthiazol-2-yl)(piperidin-4-yl)methyl)oxalamide.2HCl] | > 81 | 29.8 ± 3.5 | ~81 | – | – | – | – | – | –
3 | Cc1nc(C(NC(=O)C(=O)Nc2ccc(Cl)cc2)C2CCCCN2)sc1CCO.O=CO (centres unmarked) [Compound 9, N^1-(4-chlorophenyl)-N^2-((5-(2-hydroxyethyl)-4-methylthiazol-2-yl)(piperidin-2-yl)methyl)oxalamide.HCOOH] | > 62 | 4.2 ± 0.2 | – | 0 | – | – | – | – | –
4 | Cc1nc(C(NC(=O)C(=O)Nc2ccc(Cl)cc2)C2CCCNC2)sc1CCO (centres unmarked) [Compound 10, N^1-(4-chlorophenyl)-N^2-((5-(2-hydroxyethyl)-4-methylthiazol-2-yl)(piperidin-3-yl)methyl)oxalamide.2HCl] | > 78.5 | 13.1 ± 2.4 | ~59.4 | – | – | – | – | – | –
5 | Cc1nc(C(NC(=O)C(=O)Nc2ccc(Cl)cc2)C2CCNCC2)sc1CCO (centres unmarked) [Compound 11, N^1-(4-chlorophenyl)-N^2-((5-(2-hydroxyethyl)-4-methylthiazol-2-yl)(piperidin-4-yl)methyl)oxalamide.2HCl] | > 78.5 | 30.5 ± 3.4 | ~85.4 | – | – | – | – | – | –
6 | Cc1nc(C(NC(=O)C(=O)Nc2ccc(Cl)cc2)C2CCCCN2C)sc1CCO (centres unmarked) [Compound 12, N^1-(4-chlorophenyl)-N^2-((5-(2-hydroxyethyl)-4-methylthiazol-2-yl)(1-methylpiperidin-2-yl)methyl)oxalamide] | – | – | – | – | 36 ± 3.3 | – | – | – | –
7 | Cc1nc(C(NC(=O)C(=O)Nc2ccc(Cl)cc2)C2CCCN2)sc1CO (centres unmarked) [Compound 14, N^1-(4-chlorophenyl)-N^2-((5-(hydroxymethyl)-4-methylthiazol-2-yl)(pyrrolidin-2-yl)methyl)oxalamide.HCOOH] | ~45 | 15.4 ± 2.6 | 12.4 ± 0.7 | – | – | – | – | – | –
8 | Cc1nc(C(NC(=O)C(=O)Nc2ccc(Cl)cc2)C2CCCN2)sc1CCO (centres unmarked) [Compound 15, N^1-(4-chlorophenyl)-N^2-((5-(2-hydroxyethyl)-4-methylthiazol-2-yl)(pyrrolidin-2-yl)methyl)oxalamide.HCOOH] | ~42 | 16.2 ± 1.7 | ~4.9 | – | – | – | – | – | –
9 | CNCC(NC(=O)C(=O)Nc1ccc(Cl)cc1)c1nc(C)c(CCO)s1 (centres unmarked) [Compound 16, N^1-(4-chlorophenyl)-N^2-(1-(5-(2-hydroxyethyl)-4-methylthiazol-2-yl)-2-(methylamino)ethyl)oxalamide.2HCl] | > 43 | 24.3 ± 2.2 | 16.6 ± 1 | – | – | – | – | – | –
10 | COC(=O)[C@@H]1C[C@@H](NC(=O)C(=O)Nc2ccc(Cl)cc2)[C@H](c2ccccc2)N1 [Compound 18, (2S,4R,5S)-methyl 4-(2-(4-chlorophenylamino)-2-oxoacetamido)-5-phenyl pyrrolidine-2-carboxylate] | – | > 24.9 | – | – | > 99.6 | > 99.6 | – | – | –
11 | Cc1nc(C(NC(=O)C(=O)Nc2ccc(C(F)(F)F)cc2)C2CCCCN2)sc1CO.Cl.Cl (centres unmarked) [Compound 20, N^1-((5-(hydroxymethyl)-4-methylthiazol-2-yl)(piperidin-2-yl)methyl)-N^2-(4-(trifluoromethyl)phenyl)oxalamide.2HCl] | – | 4.6 ± 0.3 | – | – | > 75.5 | > 75.5 | 10 | – | –
12 | Cc1nc(C(NC(=O)C(=O)Nc2ccc(F)cc2F)C2CCCCN2)sc1CO (centres unmarked) [Compound 21, N^1-(2,4-difluorophenyl)-N^2-((5-(hydroxymethyl)-4-methylthiazol-2-yl)(piperidin-2-yl)methyl)oxalamide.HCl] | – | ~110 | – | – | > 87 | > 110 | – | – | –
13 | Cc1nc(C(NC(=O)C(=O)Nc2ccc(F)c(F)c2)C2CCCCN2)sc1CO.Cl (centres unmarked) [Compound 22, N^1-(3,4-difluorophenyl)-N^2-((5-(hydroxymethyl)-4-methylthiazol-2-yl)(piperidin-2-yl)methyl)oxalamide.HCl] | – | 14 ± 3.8 | – | – | > 87 | > 87 | 0 | – | –
14 | CC(=O)c1ccc(NC(=O)C(=O)NC(c2nc(C)c(CO)s2)C2CCCCN2)cc1 (centres unmarked) [Compound 23, N^1-(4-acetylphenyl)-N^2-((5-(hydroxymethyl)-4-methylthiazol-2-yl)(piperidin-2-yl)methyl)oxalamide.HCl] | > 107 | ~107 | > 86 | – | – | – | – | – | –
15 | Cc1nc(C(NC(=O)C(=O)Nc2ccc(F)c(Cl)c2)C2CCCCN2)sc1CO.Cl.Cl (centres unmarked) [Compound 24, N^1-(3-chloro-4-fluorophenyl)-N^2-((5-(hydroxymethyl)-4-methylthiazol-2-yl)(piperidin-2-yl)methyl)oxalamide.2HCl] | > 77.8 | 9.5 ± 1.4 | > 77.8 | – | – | – | – | >77.8 (0%) | –
16 | Cc1nc(C(NC(=O)C(=O)Nc2ccc(F)cc2)C2CCCCN2)sc1CO.Cl (centres unmarked) [Compound 25, N^1-(4-fluorophenyl)-N^2-((5-(hydroxymethyl)-4-methylthiazol-2-yl)(piperidin-2-yl)methyl)oxalamide.HCl] | > 113 | 48 ± 5.5 | > 90 | – | – | – | 0 | – | –
17 | Cc1ccc(NC(=O)C(=O)NC(c2nc(C)c(CO)s2)C2CCCCN2)c(F)c1 (centres unmarked) [Compound 26, N^1-(2-fluoro-4-methylphenyl)-N^2-((5-(hydroxymethyl)-4-methylthiazol-2-yl)(piperidin-2-yl)methyl)oxalamide.HCl] | – | ~66 | – | – | > 88 | > 109 | – | – | –
18 | Cc1nc(C(NC(=O)C(=O)NC2CCCCCC2)C2CCCCN2)sc1CO (centres unmarked) [Compound 29, N^1-cycloheptyl-N^2-((5-(hydroxymethyl)-4-methylthiazol-2-yl)(piperidin-2-yl)methyl)oxalamide.HCl] | – | 39.3 ± 5 | – | – | > 90 | > 90 | – | – | –
19 | Cc1nc(C(NC(=O)C(=O)Nc2ccc(Cl)cc2)C2CCCCN2)sc1CCO.O=CO (centres unmarked) [Compound 30, N^1-(4-chlorophenyl)-N^2-((5-(2-hydroxyethyl)-4-methylthiazol-2-yl)(piperidin-2-yl)methyl)oxalamide.HCOOH] | – | 4.2 ± 0.3 | – | – | 32.8 ± 0.6 | > 62 | – | – | 0
20 | Cc1nc(C(NC(=O)C(=O)Nc2ccc(C(F)(F)F)cc2)C2CCCCN2)sc1CCO.Cl.Cl (centres unmarked) [Compound 31, N^1-((5-(2-hydroxyethyl)-4-methylthiazol-2-yl)(piperidin-2-yl)methyl)-N^2-(4-(trifluoromethyl)phenyl)oxalamide.2HCl] | – | 17.4 ± 5.7 | – | – | > 74 | > 39 | 35 | – | –
21 | Cc1nc(C(NC(=O)C(=O)Nc2ccc(F)cc2F)C2CCCCN2)sc1CCO (centres unmarked) [Compound 32, N^1-(2,4-difluorophenyl)-N^2-((5-(2-hydroxyethyl)-4-methylthiazol-2-yl)(piperidin-2-yl)methyl)oxalamide.HCl] | > 105 | > 105 | – | – | > 84 | – | – | – | –
22 | Cc1nc(C(NC(=O)C(=O)Nc2ccc(F)c(F)c2)C2CCCCN2)sc1CCO.Cl.Cl (centres unmarked) [Compound 33, N^1-(3,4-difluorophenyl)-N^2-((5-(2-hydroxyethyl)-4-methylthiazol-2-yl)(piperidin-2-yl)methyl)oxalamide.2HCl] | – | 24.1 ± 4.6 | – | – | > 78.2 | > 78.2 | 10 | – | –
23 | CC(=O)c1ccc(NC(=O)C(=O)NC(c2nc(C)c(CCO)s2)C2CCCCN2)cc1 (centres unmarked) [Compound 34, N^1-(4-acetylphenyl)-N^2-((5-(2-hydroxyethyl)-4-methylthiazol-2-yl)(piperidin-2-yl)methyl)oxalamide.2HCl] | > 48.3 | 24.5 ± 1.5 | > 77.3 | – | – | – | – | – | –
24 | Cc1nc(C(NC(=O)C(=O)Nc2ccc(F)c(Cl)c2)C2CCCCN2)sc1CCO.Cl.Cl (centres unmarked) [Compound 35, N^1-(3-chloro-4-fluorophenyl)-N^2-((5-(2-hydroxyethyl)-4-methylthiazol-2-yl)(piperidin-2-yl)methyl)oxalamide.2HCl] | ~94.7 | 19.5 ± 1.8 | > 75.8 | – | – | – | – | >75.8 (20%) | –
25 | Cc1nc(C(NC(=O)C(=O)Nc2ccc(F)cc2)C2CCCCN2)sc1CCO (centres unmarked) [Compound 36, N^1-(4-fluorophenyl)-N^2-((5-(2-hydroxyethyl)-4-methylthiazol-2-yl)(piperidin-2-yl)methyl)oxalamide.HCl] | ~109 | – | > 88 | – | – | – | – | – | –
26 | Cc1ccc(NC(=O)C(=O)NC(c2nc(C)c(CCO)s2)C2CCCCN2)c(F)c1 (centres unmarked) [Compound 37, N^1-(2-fluoro-4-methylphenyl)-N^2-((5-(2-hydroxyethyl)-4-methylthiazol-2-yl)(piperidin-2-yl)methyl)oxalamide.2HCl] | – | 45.8 ± 3.5 | – | – | > 78.8 | > 78.8 | – | – | –
